Structures can show the parent of a compound that is named as a salt.
Biological target: T1, Human recombinant insulin (Ins); protofibrils / mature fibrils (Homo sapiens, UniProt P01308)
T1 construct: mature two-chain insulin (cut from proinsulin), recombinant, PanEco; aggregated to amyloid fibrils at pH 2, 62 °C; not the native monomer
Assay: fluorescence-mode nanoparticle tracking (fibril staining)
Format: binding
Details: mature amyloid fibrils, not native insulin

T1 sequence (P01308 25-54): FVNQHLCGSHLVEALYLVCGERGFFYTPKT
T1 sequence (P01308 90-110): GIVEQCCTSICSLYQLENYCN

## CC[n+]1c(/C=C/c2c(C)cc(N(C)C)cc2C)sc2ccccc21 [2M-DMASEBT, trans2-(′-(dimethylamino)-2,6-dimethylstyryl)-3-ethyl-1,3-benzothiazole tosylate]
  fluorescence-mode nanoparticle tracking (fibril staining): Fibrils were stained using the ThT derivative 2M-DMASEBT

Reference: paper PMC7504639, “Fluorescence Lifetime and Intensity of Thioflavin T as Reporters of Different Fibrillation Stages: Insights Obtained from Fluorescence Up-Conversion and Particle Size Distribution Measurements” (International Journal of Molecular Sciences, 2020)
